Assay [1] concerns the target T1, TetR (Escherichia coli, UniProt P04483).
T1 construct: 6xHis; made in house; host or cells: E. coli Rosetta 2(DE3)pLysS
Nature of the assay: TetR regulated in vitro transcription of 3WJdB with T3 or SP6 RNAP. Format: biochemical. The following applies: unoptimized. An excerpt: RIViTS are modular with respect to RNA polymerase. T7 RNA polymerase is a single-subunit RNA polymerase from the T7 bacteriophage. It is closely related to the T3 and SP6 bacteriophages and their RNA polymerases are homologous. We reasoned that we could swap the T7-specific promoter from the TetR regulated in vitro transcription of 3WJdB for an SP6 or T3-specific promoter, and maintain the ability to repress and induce transcription by using the appropriate RNAP. […] We suspect that further optimization of the transcription reaction conditions (e.g. buffer composition) will substantially improve the fold-change between the repressed and derepressed states.

Assay [2] has as its target T1, TetR. Nature of the assay: TetR regulated in vitro transcription of 3WJdB, derepression by ligand. Format: biochemical. The settings on record: 200 pmol of antibiotic, T7 RNAP, FIG. 7. An excerpt:
The family of tetracycline antibiotics are known ligands of the TetR repressor—they can induce an allosteric conformational change in TetR that results in a lowered affinity for the DNA operator sequence. Importantly, TetR repression of in vitro transcription is relieved if a cognate ligand is included immediately prior to measurement and coincident with the addition of T7 RNAP. […] This included anhydrotetracyline, tetracycline, oxytetracycline, chlortetracycline, and doxycycline. […] The 2 BP spacer (“GG”) promotes efficient transcription initiation with T7 RNAP.
Finally, to validate that the TetR regulated in vitro transcription reactions were specifically responsive to tetracycline antibiotics and that fluorescence was not due to nonspecific activity, we tested the TetR regulated in vitro transcription reaction of the 3WJdB output against macrolide antibiotics (FIG. 10A) as well as other common antibiotics used in biological research (FIG. 10B). None of the non-tetracycline antibiotics tested here is known to induce a conformational change in TetR. In all cases, strong repression of transcription was observed over the course of 2 hours except when tested against the positive control (anhydrotetracyline), or in the absence of the repressor (the unregulated reaction).

Assay [3] deals with T1, TetR. Nature of the assay: TetR regulated in vitro transcription of strand-invading RNA (InvadeR), DNA output gate. The following applies: FIG. 9. Format: biochemical. An excerpt: We next transcribed a strand-invading RNA (“InvadeR”) to illustrate that an alternative RNA output can also be visualized in real-time. The InvadeR system works through toehold-mediated strand displacement of a DNA output gate. The DNA output gate consists of 2 annealed and complementary strands (“reporter” and “quencher,” boxed in FIG. 3A). The reporter strand consists of 24 nucleotides and a 3′ fluorophore, while the quencher strand contains 16 complementary nucleotides and a 5′ quencher. When annealed, the two strands leave an 8-nucleotide single-stranded “toehold” region on the 5′ end of the reporter strand. Spatial proximity of the 3′ fluorophore and 5′ quencher results in fluorescence quenching (the “OFF” state). For the InvadeR system described here, we utilized a 3′ terminal single isomer derivative of fluorescein (6-FAM) and a quencher strand with a 5′ terminal Iowa Black FQ quencher. […]
Upon transcription of the InvadeR sequence, which contains 24 nucleotides of perfect complementarity to the reporter strand, the RNA product hybridizes to the single-stranded toehold region of the DNA output gate. This initiates a strand invasion reaction that eventually displaces the quencher strand and alleviates fluorescence quenching (the “ON” state). […]

For another assay, the target named is T2, CsoR (Bacillus subtilis, UniProt O32222).
T2 construct: 6xHis; made in house; host or cells: E. coli Rosetta 2(DE3)pLysS
T2 sequence (O32222 1-101): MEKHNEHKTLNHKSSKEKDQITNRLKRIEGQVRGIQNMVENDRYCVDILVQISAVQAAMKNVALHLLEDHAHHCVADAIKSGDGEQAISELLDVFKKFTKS
As to the kind of experiment: CsoR regulated in vitro transcription of 3WJdB (copper sensor). Format: biochemical. The settings on record: for reactivity of the copper sensor against metals: FIG. 25A. An excerpt: (§1) Next, we sought to tune the sensitivity of the copper sensor to meet the EPA regulated limit of copper in drinking water (1.3 ppm). Without any tuning, the sensor detects 0.3 ppm of copper and above (FIG. 26a). To desensitize the sensor to respond near the EPA regulated limit of copper, we reasoned that excess CsoR could be added to the reactions to act as a copper chelator. […] To further implement this strategy of tuning the amount of transcription factors to shift the sensitivity of a sensor, we determined if the lead sensor can be sensitized by decreasing the amount of CadC dimer. When the concentration was decreased from 1.5 μM to 0.5 μM of CadC, we were able to shift the dose response curve to be more sensitive in order to detect tens of ppb of lead (FIG. 26b).

In another assay the test system is MphR. Nature of the assay: MphR regulated in vitro transcription of 3WJdB. In kind it is biochemical. The settings on record: FIG. 24. An excerpt:
Similarly, we tested the orthogonality of the TetR, OtrR, CtcS, and MphR with their respective ligands (FIG. 17). In the absence of the ligands or inducers, there was a strong repression of transcription by the ATFs as expected. Only the tetracycline antibiotics tested were able to cause an allosteric conformational change in TetR, OtrR, and CtcS and restore fluorescence signal equivalent to micromolar amounts of soluble FITC, confirming the results presented in FIG. 10A. Similarly, MphR was responsive to macrolide antibiotics, but not to any tetracycline antibiotics tested.

Another assay concerns the target T3, CadC (Staphylococcus aureus, UniProt P20047).
T3 construct: 6xHis; made in house; host or cells: E. coli Rosetta 2(DE3)pLysS
As to the kind of experiment: CadC regulated in vitro transcription of 3WJdB (lead sensor). In kind it is biochemical. The settings on record: CadC dimer decreased from 1.5 μM to 0.5 μM, FIG. 26b.
Excerpt: as §1

The target in a further assay is SAR2349 (Staphylococcus aureus, UniProt Q6GEG9). The following applies: FIG. 24.
The next assay has as its target T4, AdcR (Streptococcus pneumoniae serotype 2, UniProt Q04I02).
T4 construct: Giedroc Lab (Indiana University Bloomington), gift
As to the kind of experiment: adcO-regulated KB2 kleptamer circuit with AdcR. The settings on record: unregulated 3WJdB template and adcO regulated KB2 template, FIG. 23. Format: biochemical. An excerpt: ATF ligand-mediated transcriptional repression can be inverted to ligand-mediated activation with RNA genetic circuitry. We next tested the kleptamer system with an ATF that is known to bind to its operator site in the presence of its cognate ligand and therefore cause ligand-mediated repression. AdcR is a MarR-family ATF and known to regulate genes encoding a high-affinity ABC uptake system for zinc and cell-surface zinc-binding pneumococcal histidine triad proteins.^36 Unlike the ATFs we tested previously, apo-AdcR is unbound to its operator site. Upon binding Zn(II), AdcR undergoes a conformational change that results in binding to the operator site. We placed an operator site recognized by AdcR (adcO) upstream of the KB2 kleptamer so that when zinc is present, the transcription of the KB2 kleptamer is repressed by the AdcR-zinc complex and the fluorescence-activating 3WJdB aptamer is produced.

Structures are written as SMILES.

T1 sequence (P04483 whole entry): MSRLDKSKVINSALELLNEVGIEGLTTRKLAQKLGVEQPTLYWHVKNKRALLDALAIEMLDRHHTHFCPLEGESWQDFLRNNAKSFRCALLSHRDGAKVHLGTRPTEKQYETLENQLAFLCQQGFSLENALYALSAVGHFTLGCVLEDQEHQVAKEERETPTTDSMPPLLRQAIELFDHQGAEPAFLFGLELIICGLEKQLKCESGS
T4 sequence (Q04I02 whole entry): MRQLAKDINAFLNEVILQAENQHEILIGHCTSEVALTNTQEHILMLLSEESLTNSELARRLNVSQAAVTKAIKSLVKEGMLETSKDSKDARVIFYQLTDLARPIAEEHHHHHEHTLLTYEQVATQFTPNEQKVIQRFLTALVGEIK
T3 sequence (P20047 whole entry): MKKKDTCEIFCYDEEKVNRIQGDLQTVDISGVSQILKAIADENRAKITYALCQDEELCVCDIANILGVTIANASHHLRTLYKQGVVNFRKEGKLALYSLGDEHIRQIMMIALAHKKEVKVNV
Sequence of SAR2349 (Q6GEG9 whole entry): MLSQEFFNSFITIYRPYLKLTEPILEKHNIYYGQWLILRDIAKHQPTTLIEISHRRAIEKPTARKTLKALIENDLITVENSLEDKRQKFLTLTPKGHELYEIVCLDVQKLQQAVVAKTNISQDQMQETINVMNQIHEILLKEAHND
Method for SAR2349: In Vitro Transcription. DFHBI-1T was purchased from either Lucerna or Tocris Bioscience and resuspended in DMSO at 40 mM. 45 nmol of DFHBI-1T was used in each transcription reaction involving the 3WJdB aptamer. Data from FIG. 1 was generated using a HiScribe T7 Quick High Yield RNA Synthesis Kit from New England BioLabs following the manufacturer's protocol and using 1 μg of template DNA (˜5.2 pmol). All other T7 RNA polymerase transcriptions contained T7 transcription buffer (40 mM Tris-HCl pH 8.0, 20 mM NaCl, 10 mM DTT, 8 mM MgCl2, 2 mM spermidine), 8 mM NTPs, and 2 μL T7 RNA polymerase. Amount of template, inducer, and transcription factor are noted below each figure. T3 and SP6 RNA polymerase were purchased from New England BioLabs, and transcriptions using those polymerases were performed according to the manufacturers protocol. All transcriptions were performed at 37° C. and polymerase was added immediately before measurement.
Reactions were monitored in real time by measuring on a BioTek Synergy H1 plate reader set to incubate at 37° C. For the 3WJdB output, an excitation wavelength of 472 nm and emission wavelength of 507 nm was used with measurements every 3 minutes. For the InvadeR system, excitation and emission wavelengths were set at 495 nm and 520 nm respectively and measurements were taken every minute.

Regarding `Cc1c2c(c(O)c3c(O)cccc13)C(=O)[C@]1(O)C(=O)C(C(N)=O)=C(O)[C@@H](N(C)C)[C@@H]1C2` [anhydrotetracycline], the “relief of TetR repression” value at TetR [1] (SP6 RNAP, FIG. 11B) is “repression is partially relieved”; at TetR [1] (T3 RNAP, FIG. 11A), “repression is partially relieved”. The “relief of TetR repression, aptamer-activated fluorescence” value at TetR [2] is “restored aptamer-activated fluorescence close to or exceeding the level of fluorescence observed”. The “derepression/induction of TetR-repressed InvadeR system” value at TetR [3] is on record as “derepression/induction”.

As for `[Cu+2]` [copper], the “sensitivity of the sensor” value on CsoR (CsoR tetramer increased to 7.5 μM, FIG. 26a) is recorded as 1 ppm. Besides, the “signal across ligand families” value at CsoR (FIG. 24) is reported as “strong signals from cognate ligands with minimal crosstalk”. Moreover, the “reactivity of the copper sensor against metals” value on CsoR is “can respond to copper as well as zinc”. The “concentration detected by the sensor” value on CsoR (without any tuning, CsoR tetramer 2.5 μM, FIG. 26a) is listed as ≥ 0.3 ppm.

As for `CC[C@H]1OC(=O)[C@H](C)[C@@H](O[C@H]2C[C@@](C)(OC)[C@@H](O)[C@H](C)O2)[C@H](C)[C@@H](O[C@@H]2O[C@H](C)C[C@H](N(C)C)[C@H]2O)[C@](C)(O)C[C@@H](C)C(=O)[C@H](C)[C@@H](O)[C@]1(C)O` [erythromycin], the “signal across ligand families” value with MphR was “strong signals from cognate ligands with minimal crosstalk”.

In the case of `[Pb+2]` [lead], the “concentration detected by the sensor” value at CadC was “tens of ppb”.

For `O=C(O)c1ccccc1O` [salicylate], on SAR2349, the “signal across ligand families” value is “strong signals from cognate ligands with minimal crosstalk”.

Regarding `[Zn+2]` [zinc], the “reactivity of the copper sensor against metals” value at CsoR was “can respond to copper as well as zinc”. Also, on AdcR, the “fluorescence-activation on titration of ligand” value is on record as “increased fluorescence-activation”.

The values are drawn from patent US12203144B2, “Analytes' detection using regulated in vitro transcription” (Northwestern University, priority 2018, dated 2025).
